ChEMBL document CHEMBL1201862, “PubChem BioAssay data set” (2004)
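48-hour exposure; five concentrations; linearly interpolated endpoints. GI50 is the concentration that inhibits growth by half.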 The source made the active and inactive calls. No stated cut-off is given here; in the data, active = GI50 up to about 1.1 µM and inactive = higher.

Tests used:
Assay in all cases: NCI tumour cell line growth inhibition, 48 h
ACHN = test system: ACHN
UACC-62 = test system: UACC-62
SW-620 = test system: SW-620
LOX IMVI = test system: LOX IMVI
SK-MEL-5 = test system: SK-MEL-5
SF-539 = test system: SF-539
CCRF-CEM = test system: CCRF-CEM
IGROV-1 = test system: IGROV-1
SF-268 = test system: SF-268
SF-295 = test system: SF-295
KM12 = test system: KM12
EKVX = test system: EKVX
OVCAR-5 = test system: OVCAR-5
NCI-H23 = test system: NCI-H23
HT-29 = test system: HT-29
SNB-75 = test system: SNB-75

Measured: GI50

Cc1cc(C)c(N)c(C)c1N
inactive: ACHN > 100 µM | UACC-62 > 100 µM | SW-620 > 100 µM | LOX IMVI > 100 µM | SK-MEL-5 > 100 µM | SF-539 > 100 µM | CCRF-CEM > 100 µM | IGROV-1 > 100 µM | SF-268 > 100 µM | SF-295 > 100 µM | KM12 > 100 µM | EKVX > 100 µM | OVCAR-5 > 100 µM | NCI-H23 > 100 µM

COc1cc2c(oc(=O)c3c4occc4cc(OC)c23)c2cccc(OCc3ccccc3)c12
inactive: ACHN > 100 µM | UACC-62 86.1 µM | SW-620 > 100 µM | HT-29 > 100 µM | LOX IMVI > 100 µM | SK-MEL-5 > 100 µM | SF-539 > 100 µM | CCRF-CEM > 100 µM | IGROV-1 > 100 µM | SF-268 > 100 µM | SF-295 88.9 µM | KM12 > 100 µM | EKVX > 100 µM | OVCAR-5 > 100 µM | SNB-75 40 µM | NCI-H23 > 100 µM

COc1ccc(CCN2CCC(C#N)(c3ccc(OC)c(OC)c3)CC2)cc1OC
inactive: ACHN > 100 µM | UACC-62 > 100 µM | SW-620 > 100 µM | HT-29 > 100 µM | LOX IMVI > 100 µM | SK-MEL-5 > 100 µM | SF-539 > 100 µM | CCRF-CEM > 100 µM | IGROV-1 > 100 µM | SF-268 > 100 µM | SF-295 79.6 µM | KM12 > 100 µM | EKVX > 100 µM | OVCAR-5 > 100 µM | SNB-75 30.5 µM | NCI-H23 > 100 µM

Cc1cc(NCCCCCCCNc2cc(C)nc3cc(N)ccc23)c2ccc(N)cc2n1
inactive: ACHN > 100 µM | UACC-62 35.5 µM | HT-29 34 µM | LOX IMVI 21.6 µM | SK-MEL-5 22.2 µM | SF-539 27 µM | CCRF-CEM 15.6 µM | SF-268 60.3 µM | SF-295 10.3 µM | KM12 20.7 µM | EKVX 55.6 µM | OVCAR-5 > 100 µM | SNB-75 25.2 µM | NCI-H23 30.8 µM

c1ccc2c(c1)n1nnnc1c1nnnn21
inactive: ACHN > 100 µM | UACC-62 > 100 µM | SW-620 > 100 µM | HT-29 > 100 µM | LOX IMVI 33.5 µM | SK-MEL-5 > 100 µM | SF-539 78.9 µM | CCRF-CEM > 100 µM | IGROV-1 > 100 µM | SF-268 85.1 µM | SF-295 77.8 µM | KM12 > 100 µM | EKVX > 100 µM | OVCAR-5 > 100 µM | SNB-75 24.6 µM | NCI-H23 > 100 µM

COC(=O)CCC(NC(=S)N/N=C(\C)c1ccc[nH]1)C(=O)OC (stereo not drawn)
inactive: ACHN > 100 µM | UACC-62 > 100 µM | SW-620 > 100 µM | HT-29 > 100 µM | LOX IMVI > 100 µM | SK-MEL-5 > 100 µM | SF-539 > 100 µM | CCRF-CEM > 100 µM | IGROV-1 > 100 µM | SF-268 > 100 µM | SF-295 > 100 µM | KM12 > 100 µM | EKVX > 100 µM | OVCAR-5 > 100 µM | SNB-75 > 100 µM | NCI-H23 > 100 µM

O=C1CCC(=O)N1Sc1ccccc1
inactive: ACHN > 100 µM | UACC-62 > 100 µM | SW-620 > 100 µM | LOX IMVI > 100 µM | SK-MEL-5 > 100 µM | SF-539 > 100 µM | CCRF-CEM 42.4 µM | IGROV-1 > 100 µM | SF-268 > 100 µM | SF-295 > 100 µM | KM12 > 100 µM | EKVX > 100 µM | SNB-75 72.9 µM | NCI-H23 > 100 µM

NC(=S)N1N=C2c3ccccc3CC[C@H]2[C@@H]1c1ccc(Cl)cc1
inactive: ACHN 24.4 µM | UACC-62 27.9 µM | SW-620 38.4 µM | HT-29 24.9 µM | LOX IMVI 34.8 µM | SF-539 41.7 µM | CCRF-CEM 41.3 µM | IGROV-1 19.4 µM | SF-268 32.5 µM | SF-295 26.7 µM | KM12 29 µM | EKVX 37.8 µM | OVCAR-5 47.6 µM | NCI-H23 24.4 µM

CC(=O)OC1COC(N2CCc3cc([N+](=O)[O-])ccc32)C(OC(C)=O)C1OC(C)=O (stereo not drawn)
inactive: ACHN > 100 µM | UACC-62 > 100 µM | SW-620 > 100 µM | HT-29 > 100 µM | LOX IMVI > 100 µM | SK-MEL-5 > 100 µM | SF-539 > 100 µM | CCRF-CEM > 100 µM | IGROV-1 > 100 µM | SF-268 > 100 µM | SF-295 > 100 µM | KM12 > 100 µM | EKVX > 100 µM | SNB-75 > 100 µM | NCI-H23 > 100 µM

Cn1cc(C(=O)NCCC(=N)N)cc1NC(=O)C1=[N+](C)C=C(NC(=O)c2cccc(C(=O)NC3=CC(C(=O)Nc4cc(C(=O)NCCC(=N)N)cn4C)=[N+](C)C3)c2)C1
inactive: ACHN > 100 µM | UACC-62 37.8 µM | SW-620 > 100 µM | HT-29 > 100 µM | LOX IMVI > 100 µM | SK-MEL-5 42.3 µM | SF-539 41.2 µM | CCRF-CEM > 100 µM | IGROV-1 > 100 µM | SF-268 > 100 µM | SF-295 > 100 µM | KM12 36.3 µM | EKVX > 100 µM | SNB-75 > 100 µM | NCI-H23 > 100 µM

COC(=O)c1ccc(N/C=C(/C#N)c2ccsc2)cc1
inactive: ACHN 5.97 µM | UACC-62 20.5 µM | SW-620 21.3 µM | HT-29 11.1 µM | SF-539 15.9 µM | CCRF-CEM > 100 µM | IGROV-1 27.1 µM | SF-268 10.9 µM | SF-295 7.18 µM | KM12 12.9 µM | EKVX 15.9 µM | OVCAR-5 > 100 µM | SNB-75 6.68 µM | NCI-H23 10.7 µM

O=NN(CCCl)C(=O)N[C@H]1CCCC[C@@H]1Cl
inactive: ACHN 57.7 µM | SW-620 > 100 µM | HT-29 79.6 µM | SK-MEL-5 > 100 µM | SF-539 24.9 µM | CCRF-CEM 19.6 µM | IGROV-1 > 100 µM | SF-268 16.7 µM | SF-295 47.1 µM | KM12 > 100 µM | EKVX > 100 µM | SNB-75 47 µM | NCI-H23 71.6 µM

N/N=C1\C(=O)N(c2ccc(Cl)c(Cl)c2)C(=O)C1C(=O)Nc1ccc(Cl)c(Cl)c1 (stereo not drawn)
inactive: ACHN 43.2 µM | UACC-62 51.4 µM | SW-620 91.4 µM | HT-29 49.9 µM | SK-MEL-5 17.5 µM | SF-539 79.6 µM | CCRF-CEM 34.4 µM | IGROV-1 73.8 µM | SF-268 55.1 µM | SF-295 31.9 µM | KM12 50.7 µM | EKVX 89.1 µM | OVCAR-5 88.7 µM | SNB-75 > 100 µM | NCI-H23 40.6 µM

CC(=O)OC1(C#N)CC2OC1C1C2N1C(=O)c1ccccc1 (stereo not drawn)
inactive: ACHN > 100 µM | UACC-62 > 100 µM | SW-620 > 100 µM | LOX IMVI > 100 µM | SK-MEL-5 > 100 µM | SF-539 > 100 µM | CCRF-CEM > 100 µM | IGROV-1 > 100 µM | SF-268 > 100 µM | EKVX > 100 µM | OVCAR-5 > 100 µM | SNB-75 > 100 µM | NCI-H23 > 100 µM

N#CC(C(=O)CCC(=O)Nc1cccc(Cl)c1)c1ccccc1 (stereo not drawn)
inactive: ACHN > 100 µM | UACC-62 > 100 µM | HT-29 > 100 µM | LOX IMVI > 100 µM | SK-MEL-5 > 100 µM | SF-539 > 100 µM | CCRF-CEM > 100 µM | IGROV-1 > 100 µM | SF-268 > 100 µM | SF-295 > 100 µM | KM12 > 100 µM | EKVX > 100 µM | OVCAR-5 > 100 µM | SNB-75 > 100 µM | NCI-H23 > 100 µM

CCCCN[C@H]1C2C3CC4C5CC(C42)C1(C)C53 (stereo partly drawn)
inactive: ACHN > 100 µM | UACC-62 > 100 µM | SW-620 > 100 µM | HT-29 > 100 µM | LOX IMVI > 100 µM | SK-MEL-5 > 100 µM | SF-539 > 100 µM | CCRF-CEM > 100 µM | IGROV-1 > 100 µM | SF-268 > 100 µM | SF-295 > 100 µM | KM12 > 100 µM | EKVX > 100 µM | OVCAR-5 > 100 µM | SNB-75 > 100 µM

CC(C)c1cccc(C(C)C)c1NC(=O)C(=O)CC(=O)CC(c1ccccc1)c1c(O)oc2ccccc2c1=O (stereo not drawn)
inactive: ACHN > 100 µM | UACC-62 > 100 µM | SW-620 > 100 µM | HT-29 > 100 µM | SK-MEL-5 > 100 µM | SF-539 > 100 µM | CCRF-CEM > 100 µM | IGROV-1 > 100 µM | SF-268 > 100 µM | SF-295 > 100 µM | KM12 > 100 µM | EKVX > 100 µM | OVCAR-5 > 100 µM | NCI-H23 > 100 µM

CC(C(=O)N1C(=O)N(C(=O)C(C)C(O)c2ccccc2)C2CCCCC21)C(O)c1ccccc1 (stereo not drawn)
inactive: ACHN 58.9 µM | UACC-62 > 100 µM | SW-620 > 100 µM | HT-29 > 10 µM | LOX IMVI 79.4 µM | SK-MEL-5 30.1 µM | CCRF-CEM 44.2 µM | IGROV-1 > 100 µM | SF-268 > 100 µM | SF-295 34.9 µM | KM12 37.1 µM | EKVX 81.3 µM | OVCAR-5 > 100 µM | NCI-H23 > 100 µM
